Starred links: 1 amine or outer side, 2 acyl side, 3 side chain; linkers in the order of their positions; H or OH if unused. Non-standard residues stand in square brackets, D forms with d. Residues, ends and D or L forms follow the SMILES beside them. *: point of attachment. d(γGlu) = O=C(O)[C@@H](CCC(=O)[*:2])N[*:1]; Oic = O=C(O)[C@@H]1C[C@@H]2CCCC[C@@H]2N1; Nicotinoyl = O=C(c1cccnc1)*; Bz = O=C(c1ccccc1)*
molecular target: T1, ACE preparation (rabbit lung) (Oryctolagus cuniculus, UniProt P12822); assay: In vitro ACE inhibitory activity (hippuryl-L-histidyl-L-leucine substrate); type: biochemical; conditions: 37° C., 30 minutes, pH 8.3
T1 construct: an ACE preparation (rabbit lung); from tissue; host or cells: rabbit lung
T1 sequence (P12822 34-1310): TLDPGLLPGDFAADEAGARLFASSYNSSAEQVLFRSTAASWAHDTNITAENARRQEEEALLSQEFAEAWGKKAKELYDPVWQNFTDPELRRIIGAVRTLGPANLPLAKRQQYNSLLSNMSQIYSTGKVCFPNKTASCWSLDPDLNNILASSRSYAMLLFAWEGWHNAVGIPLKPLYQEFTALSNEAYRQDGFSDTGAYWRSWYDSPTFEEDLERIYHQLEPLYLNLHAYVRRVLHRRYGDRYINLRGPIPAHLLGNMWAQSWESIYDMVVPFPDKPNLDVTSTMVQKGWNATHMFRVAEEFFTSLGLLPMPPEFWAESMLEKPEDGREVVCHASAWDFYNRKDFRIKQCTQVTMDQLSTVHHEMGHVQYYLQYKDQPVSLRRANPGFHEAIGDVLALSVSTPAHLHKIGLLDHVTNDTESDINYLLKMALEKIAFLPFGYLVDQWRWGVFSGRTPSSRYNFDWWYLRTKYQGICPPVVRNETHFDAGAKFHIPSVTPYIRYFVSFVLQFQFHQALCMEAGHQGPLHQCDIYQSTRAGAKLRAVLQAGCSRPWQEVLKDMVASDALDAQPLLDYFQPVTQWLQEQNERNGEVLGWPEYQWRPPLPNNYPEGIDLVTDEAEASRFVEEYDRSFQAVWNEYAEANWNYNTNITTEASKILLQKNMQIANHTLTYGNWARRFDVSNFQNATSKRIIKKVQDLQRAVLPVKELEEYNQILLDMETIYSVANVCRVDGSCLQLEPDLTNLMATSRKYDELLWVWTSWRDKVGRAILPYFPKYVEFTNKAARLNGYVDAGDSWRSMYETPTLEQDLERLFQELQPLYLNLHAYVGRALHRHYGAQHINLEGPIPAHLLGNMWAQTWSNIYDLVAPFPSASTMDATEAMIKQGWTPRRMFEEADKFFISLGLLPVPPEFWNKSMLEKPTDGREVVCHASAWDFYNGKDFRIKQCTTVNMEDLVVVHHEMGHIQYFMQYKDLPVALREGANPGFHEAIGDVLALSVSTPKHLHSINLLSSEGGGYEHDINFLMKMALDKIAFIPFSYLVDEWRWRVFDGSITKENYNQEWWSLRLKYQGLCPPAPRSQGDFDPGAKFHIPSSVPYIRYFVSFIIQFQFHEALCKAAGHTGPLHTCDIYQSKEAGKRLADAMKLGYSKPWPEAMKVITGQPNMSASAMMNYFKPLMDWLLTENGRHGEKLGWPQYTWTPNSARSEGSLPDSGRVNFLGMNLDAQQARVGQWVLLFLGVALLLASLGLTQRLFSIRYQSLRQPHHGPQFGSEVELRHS
Description: The assay medium contained an ACE preparation (rabbit lung), synthetic substrate (hippuryl-L-histidyl-L-leucine 5 mM), NaCl (300 mM) and phosphate buffer (100 mM, pH 8.3). It was mixed to a final volume of 0.300 ml and incubated at 37° C. for 30 minutes in the presence or absence of test compounds. After the reaction was terminated by adding 300 μl of 1N HCl, hippuric acid formed was extracted with 2 volume of ethyl acetate. After ethyl acetate was evaporated and distilled water was added, the hippuric acid was determined from its absorbance at 228 nm by spectrophotometer (Hitachi 100-41).
The degree of ACE inhibition was calculated from activities with and without test compounds. The IC50 value (molar concentration required for the 50% inhibition of ACE activity) was obtained from a dose-inhibition curve.

`NCCCC[C@H](NC(=O)c1cccnc1)C(=O)N[C@H](CCC(=O)N1c2ccccc2C[C@H]1C(=O)O)C(=O)O` [Example 35, 1-(N^2 -Nicotinoyl-L-lysyl-gamma-D-glutamyl)indoline-2(S)-carboxylic acid] and `NCCCC[C@H](NC(=O)c1ccccc1)C(=O)N[C@H](CCC(=O)N1c2ccccc2C[C@H]1C(=O)O)C(=O)O` [Example 39, 1-(N^2 -Benzoyl-L-lysyl-gamma-D-glutamyl)indoline-2(S)-carboxylic acid] are the same in IC50: 11 nM for the first, 11 nM for the second.

`COc1ccccc1C(=O)N[C@@H](CCCCN)C(=O)N[C@H](CCC(=O)N1[C@H](C(=O)O)C[C@@H]2CCCC[C@@H]21)C(=O)O` [Example 70, (2S,3aS,7aS)-1-[N^2-(2-Methoxybenzoyl)-L-lysyl-gamma-D-glutamyl]octahydro-1H-indole-2-carboxylic acid] and `NCCCC[C@H](NC(=O)c1ccccc1)C(=O)N[C@H](CCC(=O)N1[C@H](C(=O)O)C[C@@H]2CCCC[C@@H]21)C(=O)O` [Example 27, (2S,3aS,7aS)-1-(N^2 -Benzoyl-L-lysyl-gamma-D-glutamyl)octahydro-1H-indole-2-carboxylic acid] (Bz-Lys-[d(γGlu)]-[Oic]-OH) are the same in IC50: 5.4 nM for the first, 5.4 nM for the second.

`NCCCC[C@H](NC(=O)c1cccnc1)C(=O)N[C@H](CCC(=O)N1[C@H](C(=O)O)C[C@@H]2CCCC[C@@H]21)C(=O)O` [Example 69, Monosodium (2S,3aS,7aS)-1-(N^2-nicotinoyl-L-lysyl-gamma-D-glutamyl)octahydro-1H-indole-2-carboxylate] (Nicotinoyl-Lys-[d(γGlu)]-[Oic]-OH) and `NCCCC[C@H](NC(=O)c1ccccn1)C(=O)N[C@H](CCC(=O)N1[C@H](C(=O)O)C[C@@H]2CCCC[C@@H]21)C(=O)O` [Example 20, (2S,3aS,7aS)-1-[N^2-(Pyridine-2-carbonyl)-L-lysyl-gamma-D-glutamyl]octahydro-1H-indole-2-carboxylic acid] are within 1.5-fold of each other in IC50: 7.8 nM for the first, 6.8 nM for the second.

Going from `NCCCC[C@H](NC(=O)C=Cc1c[nH]cn1)C(=O)N[C@H](CCC(=O)N1c2ccccc2C[C@H]1C(=O)O)C(=O)O` [Example 10, 1-{N^2-[3-(4-Imidazolyl)-propenoyl]-L-lysyl-gamma-D-glutamyl}indoline-2(S)-carboxylic acid] to `NCCCC[C@H](NC(=O)c1cnccn1)C(=O)N[C@H](CCC(=O)N1c2ccccc2C[C@H]1C(=O)O)C(=O)O` [Example 68, 1-(N^2 -Pyrazinoyl-L-lysyl-gamma-D-glutamyl)indoline-2(S)-carboxylic acid], the IC50 falls from 95 nM to 16 nM (5.9-fold). The second is the more potent here.

First: NCCCC[C@H](NC(=O)c1ccco1)C(=O)N[C@H](CCC(=O)N1c2ccccc2C[C@H]1C(=O)O)C(=O)O [Example 8, 1-[N^2-(2-Furoyl)-L-lysyl-gamma-D-glutamyl]indoline-2(S)-carboxylic acid]
Second: NCCCC[C@H](NC(=O)OCc1ccccc1)C(=O)N[C@H](CCC(=O)N1c2ccccc2C[C@H]1C(=O)O)C(=O)O [Example 1, 1-(N^2 -Benzyloxycarbonyl-L-lysyl-gamma-D-glutamyl)indoline-2(S)-carboxylic acid]
The IC50 of the first is 4.1-fold higher: 23 nM for the first, 5.6 nM for the second. The second is the more potent here.

`NCCCC[C@H](NC(=O)c1cnc2ccccc2c1)C(=O)N[C@H](CCC(=O)N1[C@H](C(=O)O)C[C@@H]2CCCC[C@@H]21)C(=O)O` [Example 53, (2S,3aS,7aS)-1-[N^2-(3-Quinolinecarbonyl)-L-lysyl-gamma-D-glutamyl]octahydro-1H-indole-2-carboxylic acid] and `NCCCC[C@H](NC(=O)c1ccc(Cl)cc1)C(=O)N[C@H](CCC(=O)N1[C@H](C(=O)O)C[C@@H]2CCCC[C@@H]21)C(=O)O` [Example 55, (2S,3aS,7aS)-1-[N^2-(4-Chlorobenzoyl)-L-lysyl-gamma-D-glutamyl]octahydro-1H-indole-2-carboxylic acid] are within 1.5-fold of each other in IC50: 4.6 nM for the first, 6.2 nM for the second.

Compared with `NCCCC[C@H](NC(=O)OC1CCCCC1)C(=O)N[C@H](CCC(=O)N1[C@H](C(=O)O)C[C@@H]2CCCC[C@@H]21)C(=O)O` [Example 31, (2S,3aS,7aS)-1-(N^2 -Cyclohexyloxycarbonyl-L-lysyl-gamma-D-glutamyl)octahydro-1H-indole-2-carboxylic acid], `NCCCC[C@H](NC(=O)OC1CCCCC1)C(=O)N[C@H](CCC(=O)N1c2ccccc2C[C@H]1C(=O)O)C(=O)O` [Example 4, 1-(N^2 -Cyclohexyloxycarbonyl-L-lysyl-gamma-D-glutamyl)indoline-2(S)-carboxylic acid] is 1.7-fold higher in IC50: 5 nM for the first, 8.4 nM for the second.

`NCCCC[C@H](NC(=O)OCCc1ccccc1)C(=O)N[C@H](CCC(=O)N1c2ccccc2C[C@H]1C(=O)O)C(=O)O` [Example 3, 1-(N^2 -Phenethyloxycarbonyl-L-lysyl-gamma-D-glutamyl)indoline-2(S)-carboxylic acid] and `COc1ccc(CCOC(=O)N[C@@H](CCCCN)C(=O)N[C@H](CCC(=O)N2c3ccccc3C[C@H]2C(=O)O)C(=O)O)cc1` [Example 28, 1-[N^2-(4-Methoxyphenylethoxycarbonyl)-L-lysyl-gamma-D-glutamyl]indoline-2(S)-carboxylic acid] are within 1.5-fold of each other in IC50: 13 nM for the first, 11 nM for the second.

Going from `NCCCC[C@H](NC(=O)[C@@H]1CCCN1)C(=O)N[C@H](CCC(=O)N1c2ccccc2C[C@H]1C(=O)O)C(=O)O` [Example 9, 1-(L-prolyl-L-lysyl-gamma-D-glutamyl)indoline-2(S)-carboxylic acid] to `NCCCC[C@H](NC(=O)[C@H]1CCCN1)C(=O)N[C@H](CCC(=O)N1c2ccccc2C[C@H]1C(=O)O)C(=O)O` [Example 17, 1-(D-Prolyl-L-lysyl-gamma-D-glutamyl)indoline-2(S)-carboxylic acid], the IC50 falls from 36 nM to 21 nM (1.7-fold). The second is the more potent here.

Going from `NCCCC[C@H](NC(=O)OCc1ccc2c(c1)OCO2)C(=O)N[C@H](CCC(=O)N1c2ccccc2C[C@H]1C(=O)O)C(=O)O` [Example 74, 1-[N^2-(3,4-Methylenedioxybenzyloxycarbonyl)-L-lysyl-gamma-D-glutamyl]indoline-2(S)-carboxylic acid] to `NCCCC[C@H](NC(=O)OCC1CCCCC1)C(=O)N[C@H](CCC(=O)N1c2ccccc2C[C@H]1C(=O)O)C(=O)O` [Example 16, 1-(N^2 -Cyclohexylmethoxycarbonyl-L-lysyl-gamma-D-glutamyl)indoline-2(S)-carboxylic acid], the IC50 rises from 6.6 nM to 13 nM (2-fold).

`NCCCC[C@H](NC(=O)[C@@H]1Cc2ccccc2N1)C(=O)N[C@H](CCC(=O)N1[C@H](C(=O)O)C[C@@H]2CCCC[C@@H]21)C(=O)O` [Example 56, (2S,3aS,7aS)-1-[N^2-(Indoline-2(S)-carbonyl)-L-lysyl-gamma-D-glutamyl]octahydro-1H-indole-2-carboxylic acid] and `NCCCC[C@H](NC(=O)c1cccnc1Cl)C(=O)N[C@H](CCC(=O)N1[C@H](C(=O)O)C[C@@H]2CCCC[C@@H]21)C(=O)O` [Example 54, (2S,3aS,7aS)-1-[N^2-(2-Chloronicotinoyl)-L-lysyl-gamma-D-glutamyl]octahydro-1H-indole-2-carboxylic acid] are within 1.5-fold of each other in IC50: 8.2 nM for the first, 5.9 nM for the second.

Going from `NCCCC[C@H](NC(=O)OC1CCCC1)C(=O)N[C@H](CCC(=O)N1c2ccccc2C[C@H]1C(=O)O)C(=O)O` [Example 37, 1-(N^2 -Cyclopentyloxycarbonyl-L-lysyl-gamma-D-glutamyl)indoline-2(S)-carboxylic acid] to `NCCCC[C@H](NC(=O)OC1CCC1)C(=O)N[C@H](CCC(=O)N1c2ccccc2C[C@H]1C(=O)O)C(=O)O` [Example 33, 1-(N^2 -Cyclobutyloxycarbonyl-L-lysyl-gamma-D-glutamyl)indoline-2(S)-carboxylic acid], the IC50 rises from 5.1 nM to 14 nM (2.7-fold).

With `NCCCC[C@H](NC(=O)C1CCC1)C(=O)N[C@H](CCC(=O)N1c2ccccc2C[C@H]1C(=O)O)C(=O)O` [Example 36, 1-(N^2 -Cyclobutanecarbonyl-L-lysyl-gamma-D-glutamyl)-indoline-2(S)-carboxylic acid] the IC50 was 22 nM.

— patent US4826814A, “Tripeptide derivatives” (Dainippon Pharmaceutical Co., Ltd., priority 1986, dated 1989)
